Laboratory results: patent publication US8022034B2, “Combination therapy for the treatment of diabetes and conditions related thereto and for the treatment of conditions ameliorated by increasing a blood GLP-1 level” (Arena Pharmaceuticals, Inc., priority 2005, dated 2011)
Blank lines part the entries; values can stand above or below the compound they belong to.

Assays:
[1] = biological target: T1, GPR119 (GLUTag-Fla cells which express GPR119) (Mus musculus, UniProt Q7TQP3); test: Flash Plate adenylyl cyclase (cAMP) assay with GLUTag-Fla cell membranes; type: biochemical
T1 construct: endogenous in cells; host or cells: GLUTag-Fla (mouse enteroendocrine cell line), membrane preparation
T1 sequence (Q7TQP3 1-335): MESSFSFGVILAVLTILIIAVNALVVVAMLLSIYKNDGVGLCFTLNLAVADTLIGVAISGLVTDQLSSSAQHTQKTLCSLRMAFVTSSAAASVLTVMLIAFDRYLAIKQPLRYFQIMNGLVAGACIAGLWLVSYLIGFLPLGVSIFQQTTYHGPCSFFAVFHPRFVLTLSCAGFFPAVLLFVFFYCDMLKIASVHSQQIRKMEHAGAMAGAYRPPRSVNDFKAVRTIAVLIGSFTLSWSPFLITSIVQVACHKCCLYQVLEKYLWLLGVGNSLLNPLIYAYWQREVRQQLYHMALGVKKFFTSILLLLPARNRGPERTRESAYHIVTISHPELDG
Protocol: (§1) GLUTag is a mouse enteroendocrine cell line that secretes GLP-1 [Brubaker et al., Endocrinology (1998) 139:4108-4114]. The effect of GPR119 agonist on the level of intracellular cAMP in GLUTag (Fla subline) enteroendocrine cells was determined. The Fro subline of GLUTag was used as a negative control.
(§2) GluTag (GLUTag-Fla and GLUTag-Fro) cells were plated at […] in 15-cm tissue culture plate with regular growth medium. On the next day, cells were scraped off with cold Scraping Buffer (20 mM HEPES, 10 mM EDTA, pH7.4) and spinned down at 1000 rpm for 17 mins at 4° C. Cell pellets were washed with cold Membrane Wash Buffer (20 mM HEPES, 0.1 mM EDTA, pH7.4) and spun again as above. […] Protein concentration was determined by Bradford Assay. […]
(§3) The cyclase assay was done with a Flash Plate™ Adenylyl Cyclase kit (New England Nuclear; Cat. No. SMP004A). […] The cAMP generated in the wells can be quantitated by a direct competition for binding of radioactive cAMP tracer to the cAMP antibody.
(§4) Details of the cyclase assay as it was carried out are described here. cAMP standards and Detection Buffer (comprising 1 μCi of tracer [125I]cAMP (50 μl) to 11 ml Detection Buffer) were prepared and maintained in accordance with the manufacturer's instructions. […] Plates were incubated for an additional two hours, after which the samples were counted in a Wallac MicroBeta scintillation counter. […]

[2] = tested on: GLUTag-Fro cells which do not express GPR119; test: Flash Plate adenylyl cyclase (cAMP) assay with GLUTag-Fro cell membranes (negative control); type: biochemical, mouse
Protocol: as §1, §2, §3, §4

[3] = tested on: elevated blood glucose level; test: Oral glucose tolerance test (oGTT) in mice (Example 1); type: in vivo
Protocol: Oral glucose tolerance test (oGTT) in mice was carried out as described here. Overnight fasted mice (n=6 mice per treatment) were administered via oral gavage with vehicle (PET), a GPR119 agonist (AR231453) at 1 mkg (milligram compound per kilogram of body weight), a DPP-IV inhibitor (AR247810) at 0.1 mkg, or a combination of the GPR119 agonist (1 mkg) and the DPP-IV inhibitor (0.1 mkg). Thirty minutes later, a glucose bolus (3 gram/kg) was then delivered per orally. Plasma glucose levels were determined at the indicated time points over a two hour period using blood (˜5 μl) collected from tail nick and a glucose meter. Glycemic excursion curve was graphed based on data from 6 mice and given in mean values+/−SEM (FIG. 1A).

GLUTag-Fla cells = test: GLP-1 secretion in GLUTag-Fla cells (GLP-1 Active ELISA); type: cell-based, mouse; conditions: various concentrations, serum free DMEM with 15 mM glucose, one hour at 37° C.
Protocol: GLUTag-Fla cells (see Example 12, supra) were plated in 24-well plates on day one in complete culture medium (DMEM/10% FBS). On day two the culture medium was replaced with a low glucose medium (DMEM/3 mM Glucose/10% FBS). On day three cells were washed twice with 1XPBS. The washed GLUTag-Fla cells were stimulated with GPR119 agonist (AR231453) at various concentrations or with forskolin (1 uM) as a positive control in serum free DMEM with 15 mM glucose for one hour at 37° C. and 5% CO2 in a tissue culture incubator. The supernatants were then collected and clarified by centrifugation at 500 g and 4° C. for 5 minutes. GLP-1 released into the supernatant was determined by ELISA using reagents purchased from LINCO Research Laboratory [Glucagon-Like Peptide-1 (Active) ELISA Kit. Cat. #EGLP-35K].

blood glucose level = test: Oral glucose tolerance test (oGTT) in C57BL/6J mice (Example 14); type: in vivo; conditions: DPP-IV inhibitor alone, 1 mpk oral gavage, one hour before glucose bolus 2 gram/kg
Protocol: Oral glucose tolerance test (oGTT) in 7-8 week old C57BL/6J mice was carried out as described here. […] GPR119 agonist AR244061 was administered at 10 mpk or 30 mpk (milligram compound per kilogram of body weight). […] One hour after compound dosing, a glucose bolus (2 gram/kg) was delivered per orally, and tail blood samples were collected to measure blood glucose at 0, 30, 60 and 120 minutes. […] For each treatment group, glycemic excursion curve was graphed and is presented with blood glucose concentration given in mean values+/− standard error of the mean (SEM). Area Under Curve (AUC) of the glycemic excursion was calculated and reported as AUC (% of vehicle control).

Elevation of the level of intracellular cAMP ([1]; GLUTag-Fla cells which express GPR119): elevate the level of intracellular cAMP
EC50 ([1]; GLUTag-Fla membranes, eight doses from 10 uM to 1.27 nM, 60 min at room temperature, read-out: EC50 for elevation of cAMP in GLUTag cells): ~4.3 nM
Compound: CC(C)c1noc(C2CCN(c3ncnc(Nc4ccc(S(C)(=O)=O)cc4F)c3[N+](=O)[O-])CC2)n1 [AR231453]
Elevation of the level of intracellular cAMP [2]: not
AUC inhibition (effective therapeutic response) ([3]; compound alone at significantly higher doses (FIG. 1C, FIG. 1D)): around 40%
GLP-1 secretion on stimulation (GLUTag-Fla cells): secrete GLP-1

Compound: N#C[C@@H]1CCCN1C(=O)CNC12CC3CC(CC(O)(C3)C1)C2 [LAF237, (1-[[3-hydroxy-1-adamantyl)amino]acetyl]-2-cyano-(S)-pyrrolidine]
Glycemic control in oGTT (blood glucose level): measurable glycemic control

Compound: N[C@@H](CC(=O)N1CCn2c(nnc2C(F)(F)F)C1)Cc1cc(F)c(F)cc1F [MK-0431, 3(R)-Amino-1-[3-(trifluoromethyl)-5,6,7,8-tetrahydro[1,2,4]triazolo[4,3-a]pyrazin-7-yl]-4-(2,4,5-trifluorophenyl)butan-1-one]
Glycemic control in oGTT (blood glucose level): measurable glycemic control

Compound: exendin-4: incretin mimetic [reference compound]
AUC inhibition of glycemic excursion ([3]; incretin mimetic in this mouse model, dose not given): ~60%
